Laboratory results published in patent publication US3993642A, “Penicillins” (Bayer Aktiengesellschaft, priority 1973, dated 1976).

Columns and labels:
Pseudomonas Walter = assay: MIC, test tube series dilution test; conditions: 24 hours, 37°C, liquid medium
[1] = Solubility noted during working up; type: physicochemical
Excerpt: Yield 42% of sodium D(-) -α-[(3-oxo-4-methyl-pyrazolidin-1-yl)-carbonylamino]-benzylpenicillin.

Pseudomonas F 41 = assay: MIC, test tube series dilution test; type: cell-based; conditions: 24 hours, 37°C, liquid medium
Excerpt: |D(+) Dextrose (Merck) 10 g

Enterococcus sp. = assay: Freedom from cloudiness in Muller-Hinton broth; type: cell-based; conditions: 100 μg/ml, 24 hours
Bacteroides sp. = assay: Freedom from cloudiness in Muller-Hinton broth; type: cell-based; conditions: 100 μg/ml, 24 hours
E.coli B = assay: MIC, test-tube dilution method; type: cell-based
Brucella sp. = type: cell-based; conditions: 100 μg/ml, 24 hours
[2] = tested on: Pseudomonas aeruginosa sp.; assay: Freedom from cloudiness in Muller-Hinton broth; type: cell-based; conditions: 100 μg/ml, 24 hours
Klebsiella pneum. = assay: MIC, test-tube dilution method
Proteus morg. = assay: MIC, test-tube dilution method
[3] = tested on: Pseudomonas aeruginosa F 41; assay: Animal experiments with white mice infected intraperitoneally; type: in vivo, white mice of strain CF1; conditions: subcutaneously, 4 × (per administration; 30 minutes, 2, 4 and 6 hours after infection)
Experimental: (§1) The white mice of strain CF1 were infected intraperitoneally with the species of bacteria indicated in each case. |Animal experiments with white mice: |Determination of the ED50 after 24 hours. | Dose in units of the | penicillin compound of | Example 1 per kg, given |Germ subcutaneously |Therapy: | 4 administrations: | 30 minutes, 2 hours, 4 hours | and 6 hours after infection The ED50 is a dose at which 50% of the infected animals still survive after 24 hours.

Pseudomonas aeruginosa W = assay: as above; type: in vivo, white mice of strain CF1; conditions: subcutaneously, 4 × (per administration; 30 minutes, 2, 4 and 6 hours after infection)
Experimental: as §1

Proteus vulg. = assay: MIC, test-tube dilution method
Borrelia sp. = assay: Freedom from cloudiness in Muller-Hinton broth; type: cell-based; conditions: 100 μg/ml, 24 hours
[4] = tested on: Corynebacterium diphteriae gravis; assay: Freedom from cloudiness in Muller-Hinton broth; type: cell-based; conditions: 100 μg/ml, 24 hours
E.coli 26/6 = assay: MIC, test-tube dilution method
Klebsiella 63 = assay: Freedom from cloudiness in Muller-Hinton broth; type: cell-based; conditions: 100 μg/ml, 24 hours
Haemophilus influenzae = assay: Freedom from cloudiness in Muller-Hinton broth; type: cell-based; conditions: 100 μg/ml, 24 hours
E.coli 14 = assay: Freedom from cloudiness in Muller-Hinton broth; type: cell-based; conditions: 100 μg/ml, 24 hours
Clostridium tetani = type: cell-based; conditions: 100 μg/ml, 24 hours
Clostridium botulinium = type: cell-based; conditions: 100 μg/ml, 24 hours
[5] = tested on: Corynebacterium pyogenes M; assay: Freedom from cloudiness in Muller-Hinton broth; type: cell-based; conditions: 100 μg/ml, 24 hours
Serratia sp. = assay: Freedom from cloudiness in Muller-Hinton broth; type: cell-based; conditions: 100 μg/ml, 24 hours
[6] = tested on: Staphylococcus aureus 133; assay: Freedom from cloudiness in Muller-Hinton broth; type: cell-based; conditions: 100 μg/ml, 24 hours
Lactobacillus sp. = assay: Freedom from cloudiness in Muller-Hinton broth; type: cell-based; conditions: 100 μg/ml, 24 hours
Salmonella sp. = assay: Freedom from cloudiness in Muller-Hinton broth; type: cell-based; conditions: 100 μg/ml, 24 hours
Experimental: (§2) The compounds of the invention are also active against other genera of bacteria. This is shown by the following experiment, which was carried out with the compound of Example 1.
(§3) The compound of Example 1 was diluted to 100 μg/ml with Muller-Hinton nutrient broth, with the addition of 0.1% glucose. The nutrient solution in each case contained 1 × 10^5 to 2 × 10^5 bacteria per milliliter. The test tubes containing this mixture was incubated for 24 hours in each case and the degree of cloudiness was subsequently determined.

Shigella sp. = assay: Freedom from cloudiness in Muller-Hinton broth; type: cell-based; conditions: 100 μg/ml, 24 hours
Experimental: as §2, §3

[7] = tested on: Pasteurella psuedotuberculosis; assay: Freedom from cloudiness in Muller-Hinton broth; type: cell-based; conditions: 100 μg/ml, 24 hours
Experimental: as §2, §3

[8] = tested on: Neisseria catarrhalis sp.; assay: Freedom from cloudiness in Muller-Hinton broth; type: cell-based; conditions: 100 μg/ml, 24 hours
Klebsiella K 10 = assay: Freedom from cloudiness in Muller-Hinton broth; type: cell-based; conditions: 100 μg/ml, 24 hours
[9] = tested on: Proteus, indole-positive, sp.; assay: Freedom from cloudiness in Muller-Hinton broth; type: cell-based; conditions: 100 μg/ml, 24 hours
E. coli C 165 = assay: Animal experiments with white mice infected intraperitoneally; type: in vivo, white mice of strain CF1; conditions: subcutaneously, 1 × (1 administration, 30 minutes after infection)
Experimental: as §1, with “1 administration:” for “4 administrations:”, “minutes” for “minutes, 2 hours, 4 hours | and 6 hours”

Staphyloccus aureus = assay: as above; type: in vivo, white mice of strain CF1; conditions: subcutaneously, 1 × (1 administration, 30 minutes after infection)
Experimental: as §1, with “1 administration:” for “4 administrations:”, “minutes” for “minutes, 2 hours, 4 hours | and 6 hours”

Streptococcus pyogenes W = assay: Freedom from cloudiness in Muller-Hinton broth; type: cell-based; conditions: 100 μg/ml, 24 hours
Aeromonas hydrophila sp. = assay: Freedom from cloudiness in Muller-Hinton broth; type: cell-based; conditions: 100 μg/ml, 24 hours
E.coli C 165 = assay: Freedom from cloudiness in Muller-Hinton broth; type: cell-based; conditions: 100 μg/ml, 24 hours
[10] = tested on: Bordetella bronchiseptica; assay: Freedom from cloudiness in Muller-Hinton broth; type: cell-based; conditions: 100 μg/ml, 24 hours
Enterobacter sp. = assay: Freedom from cloudiness in Muller-Hinton broth; type: cell-based; conditions: 100 μg/ml, 24 hours
[11] = tested on: Diplococcus pneumoniae sp.; assay: Freedom from cloudiness in Muller-Hinton broth; type: cell-based; conditions: 100 μg/ml, 24 hours
Staph.aureus 133 = assay: MIC, test-tube dilution method
[12] = tested on: Proteus, indole-negative, sp.; assay: Freedom from cloudiness in Muller-Hinton broth; type: cell-based; conditions: 100 μg/ml, 24 hours
Proteus vulgaris 1017 = assay: Freedom from cloudiness in Muller-Hinton broth; type: cell-based; conditions: 100 μg/ml, 24 hours
Enterococcus ATCC 9790 = assay: MIC, test-tube dilution method

With `CC1CN(C(=O)N[C@@H](C(=O)N[C@@H]2C(=O)N3[C@@H]2SC(C)(C)[C@@H]3C(=O)O)c2ccccc2)NC1=O` (single isomer, unassigned) [Example 11 C, sodium D(-) -α-[(3-oxo-4-methyl-pyrazolidin-1-yl)-carbonylamino]-benzylpenicillin] the MIC (Pseudomonas Walter) was 16 - 64 μ/ml.

For `CC1(C)S[C@@H]2[C@H](NC(=O)[C@H](NC(=O)N3NC(=O)CC3c3ccccc3)c3ccccc3)C(=O)N2[C@H]1C(=O)O` (single isomer, unassigned) [Example 14, sodium D(-)-α-[(3-oxo-5-phenyl-pyrazolidin-1-yl)-carbonylamino]-benzylpenicillin], the MIC (Pseudomonas Walter) was 4 - 16 μ/ml.

For `CC1CN(C(=O)N[C@@H](C(=O)N[C@@H]2C(=O)N3[C@@H]2SC(C)(C)[C@@H]3C(=O)O)c2ccccc2)NC1=O` (single isomer, unassigned) [free penicillic acid, D(-)-α-[(3-oxo-4-methyl-pyrazolidin-1-yl)-carbonylamino]-benzylpenicillin], the “solubility in ethyl acetate” value ([1]; ethyl acetate) was “sparingly soluble” and the solubility in water ([1]; water) was “sparingly soluble”.

Compound `CC1(C)S[C@@H]2[C@H](NC(=O)[C@H](N)c3ccccc3)C(=O)N2[C@H]1C(=O)O` [Ampicillin, α-aminobenzylpenicillin, reference compound] has an MIC (Pseudomonas Walter) greater than 400 μ/ml and an MIC (Pseudomonas F 41) greater than 400 μ/ml.

With `CC1(C)S[C@@H]2[C@H](NC(=O)C(C(=O)O)c3ccccc3)C(=O)N2[C@H]1C(=O)O` (stereo partly drawn) [Carbenicillin, reference compound] the MIC (Pseudomonas Walter) was 200 μ/ml and the MIC (Pseudomonas F 41) was greater than 200 μ/ml.

With `Cc1cn(C(=O)N[C@@H](C(=O)N[C@@H]2C(=O)N3[C@@H]2SC(C)(C)[C@@H]3C(=O)O)c2ccccc2)[nH]c1=O` [Example 1 B, sodium D(-)-α-[(4-methyl-5-oxo-3-pyrazolin-2-yl)-carbonylamino]-benzylpenicillin] the Freedom from cloudiness (Enterococcus sp.) was “free of cloudiness”, the Freedom from cloudiness (Bacteroides sp.) was “free of cloudiness” and the MIC (E.coli B) was 32 U/ml. The Freedom from cloudiness (Brucella sp.) was “free of cloudiness”, the Freedom from cloudiness [2] was “free of cloudiness” and the MIC (Klebsiella pneum.) was 128 U/ml. The MIC (Proteus morg.) was 128 U/ml, the “ED50 after 24 hours” value [3] was 100,000 units per kg and the “ED50 after 24 hours” value (Pseudomonas aeruginosa W) was 75,000 units per kg. The MIC (Proteus vulg.) was 128 U/ml, the MIC (Pseudomonas Walter) was 8 μ/ml and the Freedom from cloudiness (Borrelia sp.) was “free of cloudiness”. The Freedom from cloudiness [4] was “free of cloudiness”, the MIC (E.coli 26/6) was 1 U/ml and the Freedom from cloudiness (Klebsiella 63) was “free of cloudiness”. The Freedom from cloudiness (Haemophilus influenzae) was “free of cloudiness”, the Freedom from cloudiness (E.coli 14) was “free of cloudiness” and the Freedom from cloudiness (Clostridium tetani) was “free of cloudiness”. The Freedom from cloudiness (Clostridium botulinium) was “free of cloudiness”, the Freedom from cloudiness [5] was “free of cloudiness” and the Freedom from cloudiness (Serratia sp.) was “free of cloudiness”. The MIC (Pseudomonas F 41) was 8 μ/ml, the Freedom from cloudiness [6] was “free of cloudiness” and the Freedom from cloudiness (Lactobacillus sp.) was “free of cloudiness”. For the same compound, the Freedom from cloudiness (Salmonella sp.) was “free of cloudiness”, the Freedom from cloudiness (Shigella sp.) was “free of cloudiness” and the Freedom from cloudiness [7] was “free of cloudiness”. The Freedom from cloudiness [8] was “free of cloudiness”, the Freedom from cloudiness (Klebsiella K 10) was “free of cloudiness” and the Freedom from cloudiness [9] was “free of cloudiness”. For the same compound, the “ED50 after 24 hours” value (E. coli C 165) was 200,000 units per kg, the “ED50 after 24 hours” value (Staphyloccus aureus) was 40,000 units per kg and the Freedom from cloudiness (Streptococcus pyogenes W) was “free of cloudiness”. For the same compound, the Freedom from cloudiness (Aeromonas hydrophila sp.) was “free of cloudiness”, the Freedom from cloudiness (E.coli C 165) was “free of cloudiness” and the Freedom from cloudiness [10] was “free of cloudiness”. The Freedom from cloudiness (Enterobacter sp.) was “free of cloudiness”, the Freedom from cloudiness [11] was “free of cloudiness” and the MIC (Staph.aureus 133) was 0.5 U/ml. For the same compound, the Freedom from cloudiness [12] was “free of cloudiness”, the Freedom from cloudiness (Proteus vulgaris 1017) was “free of cloudiness” and the MIC (Enterococcus ATCC 9790) was 32 U/ml.

In the case of `CC1(C)S[C@@H]2[C@H](NC(=O)[C@H](NC(=O)n3cc(-c4ccccc4)c(=O)[nH]3)c3ccccc3)C(=O)N2[C@H]1C(=O)O` [Example 2 C, sodium D(-)-α-[(4-phenyl-5-oxo-3-pyrazolin-2-yl)-carbonylamino]-penzylpenicillin], the MIC (Pseudomonas Walter) is reported as 4 μ/ml and the MIC (Pseudomonas F 41) is reported as 4 μ/ml.

For `Cc1cn(C(=O)N[C@@H](C(=O)N[C@@H]2C(=O)N3[C@@H]2SC(C)(C)[C@@H]3C(=O)O)c2ccc(O)cc2)[nH]c1=O` [Example 8, Sodium D(-)-α-[(4-methyl-5-oxo-3-pyrazolin-2-yl)-carbonylamino]-p-hydroxybenzylpenicillin], the MIC (Pseudomonas Walter) was 8 μ/ml and the MIC (Pseudomonas F 41) was 8 - 16 μ/ml.

In the case of `Cc1cn(C(=O)N[C@@H](C(=O)N[C@@H]2C(=O)N3[C@@H]2SC(C)(C)[C@@H]3C(=O)O)C2=CCC=CC2)[nH]c1=O` [Example 9, Sodium D(-)-α-[(4-methyl-5-oxo-3-pyrazolin-2-yl)-carbonylamino]-α-(cyclohexa-1,4-dien-1-yl)-methylpenicillin], the MIC (Pseudomonas Walter) is reported as 16 - 32 μ/ml and the MIC (Pseudomonas F 41) is reported as 8 - 16 μ/ml.

With `CC1(C)S[C@@H]2[C@H](NC(=O)[C@H](NC(=O)N3CCC(=O)N3)c3ccccc3)C(=O)N2[C@H]1C(=O)O` [Example 10 C, Sodium D(-)-α-[(3-oxo-pyrazolidin-1-yl)-carbonylamino]-benzylpenicillin] the MIC (Pseudomonas Walter) was 8 - 16 μ/ml.
